As usually defined, the Kd is the equilibrium constant for the complex coming apart. Higher therefore signals lower affinity.

From publication PMC12108080, “Sodium butyrate inhibits the expression of virulence factors in Vibrio cholerae by targeting ToxT protein” (mSphere, 2025) come the findings set out here.

For series [1], the target named is T1, ToxT (Vibrio cholerae, UniProt P0C6D6).
T1 construct: gene tcpN; 6xHis fusion from pHIS-Tev plasmid, expressed in E. coli BL21(DE3), Ni-agarose purified
Type of series: binding. The conditions noted are these: 1.0 µM ToxT pre-incubated with TB (40 mM) 20 min, 1 nM PtcpA DNA, pH 7.5.

Series [2] deals with T2, ToxT (His6/NBP-ToxT fusion) (Vibrio cholerae N16961?) (UniProt P0C6D6).
T2 sequence: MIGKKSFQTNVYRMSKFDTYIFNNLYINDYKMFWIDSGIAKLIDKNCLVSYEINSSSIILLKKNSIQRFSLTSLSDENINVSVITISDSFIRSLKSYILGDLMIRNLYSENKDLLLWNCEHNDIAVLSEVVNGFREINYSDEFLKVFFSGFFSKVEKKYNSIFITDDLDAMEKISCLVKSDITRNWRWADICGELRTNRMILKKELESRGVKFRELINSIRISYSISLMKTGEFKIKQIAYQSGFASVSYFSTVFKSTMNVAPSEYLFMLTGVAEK
As to the kind of experiment: competition. The conditions noted are these: 10 mM Tris-HCl pH 7.5, 100 mM KCl, 1 mM EDTA, 1 mM DTT, 200 µg/mL BSA, 10% glycerol, […] (temperature not stated).

Series [3] concerns the target T1, ToxT. The experiment in a line: intrinsic tryptophan fluorescence quenching, logarithmic plot. Type of series: binding.

Consider `CCCC(=O)OCC(COC(=O)CCC)OC(=O)CCC` [TB, tributyrate], for which the “inhibition of DNA binding” value at ToxT [1] is “tributyrate (TB), was used, and it showed no inhibition on ToxT-DNA binding”. On to “ATTGCTGAGCTAAAGGGGCTGGAAATTCAATGTCATCAGGCTGTTGCCAAGTGACGCGATTCAGTGCGGCTAAATAGAGCGAAGTTAATTGATTCATACTATTATTCAATTTGACGCTTTACCCGATTACCCTAGCTACCTGCAATACCA (double strand) [nonspecific competitor DNA]”, for which the binding entry in series [2] is recorded as “no binding”. On to `CCCC(=O)O` [SB, sodium butyrate], for which, at ToxT [3], the dissociation constant Kd was found to be 2600 ± 30 µM.
